Test results from patent publication US11897904B2, “Herbicidally active bicyclic benzamides” (Bayer Aktiengesellschaft, priority 2017, dated 2024).

How the values were obtained:
VERPE [1] = experiment: Post-emergence herbicidal action; assay type: in vivo, Veronica persica; conditions: rated visually after about 3 weeks vs untreated controls
Experimental: (§1) 2. Post-Emergence Herbicidal Action and Crop Plant Compatibility
(§2) Seeds of monocotyledonous and dicotyledonous weeds and crop plants are placed in sandy loam in plastic or organic planting pots, covered with soil and cultivated in a greenhouse under controlled growth conditions. 2 to 3 weeks after sowing, the test plants are treated at the one-leaf stage. The compounds of the invention, formulated in the form of wettable powders (WP) or as emulsion concentrates (EC), are then sprayed onto the green parts of the plants as aqueous suspension or emulsion with addition of 0.5% additive at a water application rate of […] (converted). After the test plants had been kept in the greenhouse under optimum growth conditions for about 3 weeks, the activity of the preparations is rated visually in comparison to untreated controls. The tables below show the herbicidal activity of numerous compounds according to the invention against important harmful plants. For example, 100% activity=the plants have died, 0% activity=like control plants.

STEME [2] = experiment: Post-emergence herbicidal action; assay type: in vivo, Stellaria media; conditions: rated visually after about 3 weeks vs untreated controls
Experimental: as §1, §2

SETVI [3] = experiment: Post-emergence herbicidal action; assay type: in vivo, Setaria viridis; conditions: rated visually after about 3 weeks vs untreated controls
Experimental: as §1, §2

ABUTH [4] = experiment: Post-emergence herbicidal action; assay type: in vivo, Abutilon theophrasti; conditions: post-emergence, rated visually after about 3 weeks vs untreated controls
Experimental: as §1, §2

SETVI [5] = experiment: Pre-emergence herbicidal action; assay type: in vivo, Setaria viridis; conditions: pre-emergence, 320 g/ha, scored visually after about 3 weeks vs untreated controls
Text: (§3) 1. Pre-Emergence Herbicidal Action and Crop Plant Compatibility
(§4) Seeds of monocotyledonous and dicotyledonous weed plants and crop plants are placed in plastic or organic planting pots and covered with soil. The compounds of the invention, formulated in the form of wettable powders (WP) or as emulsion concentrates (EC), are then applied onto the surface of the covering soil as aqueous suspension or emulsion with addition of 0.5% additive at a water application rate of 600 l/ha (converted). After the treatment, the pots are placed in a greenhouse and kept under good growth conditions for the trial plants. After about 3 weeks, the effect of the preparations is scored visually in comparison with untreated controls as percentages. The tables below show the herbicidal activity of numerous compounds according to the invention against important harmful plants. For example, 100% activity=the plants have died, 0% activity=like control plants.

ECHCG [6] = experiment: Pre-emergence herbicidal action; assay type: in vivo, Echinochloa crus-galli; conditions: 320 g/ha, scored visually after about 3 weeks vs untreated controls
Text: as §3, §4

ECHCG [7] = experiment: Post-emergence herbicidal action; assay type: in vivo, Echinochloa crus-galli; conditions: rated visually after about 3 weeks vs untreated controls
Experimental: as §1, §2

MATIN [8] = experiment: Post-emergence herbicidal action; assay type: in vivo, Matricaria inodora; conditions: 80 g/ha, rated visually after about 3 weeks vs untreated controls
Experimental: as §1, §2

AMARE [9] = experiment: Pre-emergence herbicidal action; assay type: in vivo, Amaranthus retroflexus; conditions: scored visually after about 3 weeks vs untreated controls
Text: as §3, §4

PHBPU = experiment: Post-emergence herbicidal action; assay type: in vivo, Ipomoea purpurea; conditions: 80 g/ha, rated visually after about 3 weeks vs untreated controls
Experimental: as §1, §2

AMARE [10] = experiment: Post-emergence herbicidal action; assay type: in vivo, Amaranthus retroflexus; conditions: rated visually after about 3 weeks vs untreated controls
Experimental: as §1, §2

VIOTR [11] = experiment: Pre-emergence herbicidal action; assay type: in vivo, Viola tricolor; conditions: scored visually after about 3 weeks vs untreated controls
Text: as §3, §4

MATIN [12] = experiment: Pre-emergence herbicidal action; assay type: in vivo, Matricaria inodora; conditions: pre-emergence, 320 g/ha, scored visually after about 3 weeks vs untreated controls
Text: as §3, §4

ABUTH [13] = experiment: Pre-emergence herbicidal action; assay type: in vivo, Abutilon theophrasti; conditions: pre-emergence, scored visually after about 3 weeks vs untreated controls
Text: as §3, §4

STEME [14] = experiment: Pre-emergence herbicidal action; assay type: in vivo, Stellaria media; conditions: scored visually after about 3 weeks vs untreated controls
Text: as §3, §4

VERPE [15] = experiment: Pre-emergence herbicidal action; assay type: in vivo, Veronica persica; conditions: scored visually after about 3 weeks vs untreated controls
Text: as §3, §4

VIOTR [16] = experiment: Post-emergence herbicidal action; assay type: in vivo, Viola tricolor; conditions: rated visually after about 3 weeks vs untreated controls
Experimental: as §1, §2

| Structure (SMILES) | herbicidal activity VERPE (VERPE [1]; 80 g/ha) | herbicidal activity STEME (STEME [2]; 80 g/ha) | herbicidal activity SETVI (SETVI [3]; 80 g/ha) | herbicidal activity ABUTH (ABUTH [4]; 80 g/ha) | herbicidal activity SETVI (SETVI [5]) | herbicidal activity ECHCG (ECHCG [7]; 80 g/ha) | herbicidal activity MATIN (MATIN [8]) | herbicidal activity AMARE (AMARE [9]; 320 g/ha) | herbicidal activity AMARE (AMARE [10]; 80 g/ha) | herbicidal activity VIOTR (VIOTR [11]; 320 g/ha) | herbicidal activity MATIN (MATIN [12]) | herbicidal activity ABUTH (ABUTH [13]; 320 g/ha) | herbicidal activity STEME (STEME [14]; 320 g/ha) | herbicidal activity VIOTR (VIOTR [16]; 80 g/ha) | herbicidal activity ABUTH (ABUTH [4]; 20 g/ha) | further results |
| --- | --- | --- | --- | --- | --- | --- | --- | --- | --- | --- | --- | --- | --- | --- | --- | --- |
| Cn1nnnc1NC(=O)c1ccc(C(F)F)c2c1OC[S+]2[O-] (centres unmarked) [Example 2-69] | 90% | 100% | 80% | 90% | 90% | 100% | 90% | 100% | 90% | 100% | 90% | 100% | 90% | 100% |  | herbicidal activity ECHCG (ECHCG [6]): 90%; herbicidal activity PHBPU (PHBPU): 80%; herbicidal activity VERPE (VERPE [15]; 320 g/ha): 90% |
| Cc1ccc(C(=O)Nc2nnnn2C)c2c1S(=O)(=O)CO2 [Example 2-80] |  | 90% |  |  |  |  | 80% | 90% | 90% |  | 80% |  |  | 90% |  |  |
| Cn1nnnc1NC(=O)c1ccc(C(F)F)c2c1OCS2(=O)=O [Example 2-84] | 100% | 100% | 100% | 90% | 90% | 90% | 100% | 100% | 100% | 100% | 100% | 90% | 90% | 100% |  | herbicidal activity PHBPU (PHBPU): 90%; herbicidal activity VERPE (VERPE [15]; 320 g/ha): 100% |
| CC1Oc2c(C(=O)Nc3nnnn3C)ccc(C(F)(F)F)c2S1 (centres unmarked) [Example 2-94, 2-methyl-4-(trifluoromethyl)-1,3-benzoxathiolane-N-(1-methyltetrazol-5-yl)-7-carboxamide] |  | 100% | 80% | 90% | 100% | 80% |  | 100% | 90% | 100% |  | 90% | 100% | 80% |  |  |
| COC1Oc2c(C(=O)Nc3nnnn3C)ccc(C(F)(F)F)c2S1 (centres unmarked) [Example 2-112, 2-methoxy-4-(trifluoromethyl)-1,3-benzoxathiolane-N-(1-methyltetrazol-5-yl)-7-carboxamide] |  |  |  |  |  |  |  |  |  |  |  |  |  |  | 90% | herbicidal activity VERPE (VERPE [1]; 20 g/ha): 80%; herbicidal activity SETVI (SETVI [3]; 20 g/ha): 80%; herbicidal activity ECHCG (ECHCG [7]; 20 g/ha): 80%; herbicidal activity AMARE (AMARE [9]; 80 g/ha): 90%; herbicidal activity AMARE (AMARE [10]; 20 g/ha): 80%; herbicidal activity VIOTR (VIOTR [11]; 80 g/ha): 100%; herbicidal activity ABUTH (ABUTH [13]; 80 g/ha): 100%; herbicidal activity VERPE (VERPE [15]; 80 g/ha): 80% |
| CCOC1Oc2c(C(=O)Nc3nnnn3C)ccc(C(F)(F)F)c2S1 (centres unmarked) [Example 2-130] |  |  |  |  |  |  |  |  |  |  |  |  |  |  | 90% | herbicidal activity VIOTR (VIOTR [11]; 80 g/ha): 100%; herbicidal activity ABUTH (ABUTH [13]; 80 g/ha): 100%; herbicidal activity STEME (STEME [14]; 80 g/ha): 100%; herbicidal activity VIOTR (VIOTR [16]; 20 g/ha): 90% |
| CSc1ccc(C(=O)Nc2nnnn2C)c2c1SCS2 [Example 2-253] |  |  |  |  |  |  |  |  |  |  |  |  |  |  | 90% |  |
| Cn1nnnc1NC(=O)c1ccc(Cl)c2c1[S+]([O-])CS2 (centres unmarked) [Example 2-254] |  |  |  |  |  |  |  |  |  |  |  |  |  |  |  | herbicidal activity AMARE (AMARE [9]; 80 g/ha): 80% |
| Cn1nnnc1NC(=O)c1ccc(C(F)(F)F)c2c1SC[S+]2[O-] (centres unmarked) [Example 2-255] |  |  |  |  |  |  |  |  |  |  |  |  |  |  |  | herbicidal activity STEME (STEME [2]; 20 g/ha): 80%; herbicidal activity VIOTR (VIOTR [16]; 20 g/ha): 80% |
| COC1Sc2c(C(=O)Nc3nnnn3C)ccc(C(F)(F)F)c2S1 (centres unmarked) [Example 2-257] |  |  |  |  |  |  |  |  |  |  |  |  |  |  | 90% | herbicidal activity ECHCG (ECHCG [7]; 20 g/ha): 100%; herbicidal activity VIOTR (VIOTR [16]; 20 g/ha): 80% |
| CCn1nnnc1NC(=O)c1ccc(C(F)(F)F)c2c1OCS2 [Example 3-52] | 100% | 100% | 100% | 80% | 90% | 100% | 90% | 100% | 100% | 90% | 90% | 90% | 100% | 100% |  | herbicidal activity ECHCG (ECHCG [6]): 90%; herbicidal activity PHBPU (PHBPU): 100%; herbicidal activity VERPE (VERPE [15]; 320 g/ha): 80% |
| CCn1nnnc1NC(=O)c1ccc(C(F)F)c2c1OCS2 [Example 3-53] | 80% | 90% | 80% | 90% |  | 80% | 80% | 90% | 100% | 100% |  |  |  | 90% |  |  |
